Common to all, as to assay type: functional
The subject of assay [1] is Mycobacterium tuberculosis. Kind of assay: Antimycobacterial activity against Mycobacterium tuberculosis H37Rv assessed as growth inhibition by Alamar Blue staining-based broth microdilution assay. On the set-up: inhibition (INH): concentration or dose not given beside the values. Particulars: for MIC: Mycobacterium tuberculosis, H37Rv. Background: Alamar Blue is a resazurin reagent that responds to reducing activity.

The test system of assay [2] is Mycobacterium tuberculosis. Kind of assay: Antimycobacterial activity against Mycobacterium tuberculosis H37Rv assessed as growth inhibition at 128 ug/ml by Alamar Blue staining-based broth microdilution assay.
For assay [3], the system named is Mycobacterium tuberculosis. Kind of assay: Antimycobacterial activity against Mycobacterium tuberculosis H37Rv assessed as growth inhibition at 128 ug/ml by low-oxygen recovery assay.
The subject of assay [4] is Mycolicibacterium smegmatis. The assay can be described thus: Antimicrobial activity against Mycobacterium smegmatis.
Assay [5] relates to Mycolicibacterium fortuitum. The assay can be described thus: Antimycobacterial activity against Mycobacterium fortuitum.
The subject of assay [6] is Mycobacterium tuberculosis. Kind of assay: Ratio of GTFX IC50 to compound IC50 Mycobacterium tuberculosis H37Rv assessed as growth inhibition.
Assay [7] concerns Mycobacterium tuberculosis. Kind of assay: Ratio of 8-OCH3 IC50 to compound IC50 Mycobacterium tuberculosis H37Rv assessed as growth inhibition.
The test system of assay [8] is Mycobacterium tuberculosis. The assay can be described thus: Ratio of MXFX IC50 to compound IC50 Mycobacterium tuberculosis H37Rv assessed as growth inhibition.
Assay [9] deals with Mycobacterium tuberculosis. The assay can be described thus: Ratio of RIF IC50 to compound IC50 Mycobacterium tuberculosis H37Rv assessed as growth inhibition.
Assay [10] relates to Mycobacterium tuberculosis. Kind of assay: Ratio of CPFX IC50 to compound IC50 Mycobacterium tuberculosis H37Rv assessed as growth inhibition.
Assay [11] relates to Mycobacterium tuberculosis. The assay can be described thus: Antimycobacterial activity against Mycobacterium tuberculosis H37Rv assessed as growth inhibition at 6.25 ug/ml by Alamar Blue staining-based broth microdilution assay.
The test system of another assay is Mycolicibacterium phlei. The assay can be described thus: Antimycobacterial activity against Mycobacterium phlei.

In brackets after ≈: the same amount, converted by molar mass.

Regarding `COc1cc(/C=C/c2c(C#N)c(=O)oc3ccc(Cl)cc23)cc(OC)c1OC`, the “inhibition (INH)” value in [1] came to 87%.

With `N#Cc1c(/C=C/c2c3ccccc3cc3ccccc23)c2cc(Cl)ccc2oc1=O`, the “inhibition (INH)” value in assay [1] was 81%.

Consider `CN(C)c1ccc(/C=C/c2c(C#N)c(=O)oc3ccc(Cl)cc23)cc1`, for which the “inhibition (INH)” value in assay [1] came to 79%.

The term MIC denotes the smallest concentration in the dilution series that meets the test's criterion for growth inhibition. Consider `O=C(c1ccncc1)n1nc(-c2ccc(F)cc2)cc1-c1cc2ccccc2oc1=O`, for which, in assay [1], the “inhibition (INH)” value turned out to be 80.09% and the MIC was 0.625 µg/mL (≈ 1.52 µM).

For the molecule `COc1ccc(-c2cc(-c3ccc(Nc4cc(=O)oc5ccccc45)cc3)nc(N)c2C#N)cc1OC`, in assay [1], the “inhibition (INH)” value came to 99% and the MIC stood at 12.5 µg/mL (≈ 25.5 µM).

`O=C(CSc1nnc(-c2cc3ccccc3oc2=O)o1)Nc1nc2ccc(Br)cc2s1`: in assay [1], the “inhibition (INH)” value is listed as 99% and the MIC came out at 12.5 µg/mL (≈ 24.3 µM).

With `O=C(CSc1nnc(-c2cc3ccccc3oc2=O)o1)Nc1ccc(I)cc1`, in assay [1], the “inhibition (INH)” value is 99% and the MIC was 12.5 µg/mL (≈ 24.7 µM).

Consider `Cc1ccc(O)c(C(=O)c2ccc(-c3cc4cc(Br)ccc4oc3=O)nc2)c1`, for which the MIC in assay [1] amounted to 100 µg/mL (≈ 229 µM).

For `Cc1ccc(O)c(C(=O)c2ccc(-c3cc4ccccc4oc3=O)nc2)c1`, the MIC in [1] amounted to 100 µg/mL (≈ 280 µM).

Take `COc1cccc2cc(-c3ccc(C(=O)c4cc(C)ccc4O)cn3)c(=O)oc12`: the MIC in assay [1] stood at 62.5 µg/mL (≈ 161 µM).

What is called inhibition is the percentage by which the read-out fell short of the control. Consider `COc1ccc(C2NC(=O)Nc3c2c(=O)oc2ccc(C)cc32)cc1` (centres undefined), for which the inhibition at 128 µg/mL in [2] came out at 58%; in assay [3], 62%.

In the case of `COc1ccc(C2NC(=O)Nc3c2c(=O)oc2ccc(C)cc32)cc1OC` (centres undefined), the inhibition at 128 µg/mL in assay [2] amounted to 55%; in [3], 35%.

As to `O=C1Nc2c(c(=O)oc3ccccc23)C(c2ccccc2O)N1` (centres undefined), the inhibition at 128 µg/mL in [2] turned out to be 45%; in [3], 37%.

`CC(C)=CCC/C(C)=C/CC/C(C)=C/Cc1c(O)c2ccccc2oc1=O`: the results for the MIC in [4] and in assay [5] were 0.5 µg/mL (≈ 1.36 µM) and 2 µg/mL (≈ 5.46 µM), respectively.

On to `Cc1cc(=O)oc2cc(OCc3cn(Cc4cc(=O)oc5ccc6ccccc6c45)nn3)ccc12`, for which the MIC in assay [1] came out at 6.25 µg/mL (≈ 13.4 µM).

Consider `Cc1cc(=O)oc2cc(OCc3cn(Cc4cc(=O)oc5cc(Cl)ccc45)nn3)ccc12`, for which the MIC in assay [1] stood at 6.25 µg/mL (≈ 13.9 µM).

`O=C(N/N=C/c1cccc(O)c1)c1cc2ccccc2oc1=O`: the MIC in assay [1] turned out to be 50 µg/mL (≈ 162 µM).

Consider `Cc1cc(=O)oc2cc(OCc3cn(Cc4cc(=O)oc5ccc(Cl)cc45)nn3)ccc12`, for which, in assay [1], the MIC came to 6.25 µg/mL (≈ 13.9 µM).

`COc1c2c(cc3oc(=O)c(-c4ccc(O)cc4)c(O)c13)OC(C)(C)C=C2`: in [4], the MIC was determined as 18 µg/mL (≈ 49.1 µM).

`O=C(CN1CCN(c2cc3c(cc2F)c(=O)c(C(=O)O)cn3C2CC2)CC1)c1cc2ccc(O)cc2oc1=O`: the MIC turned out to be 3.12 µg/mL (≈ 5.85 µM) in assay [4] and 0.5 µg/mL (≈ 0.937 µM) in assay [1].

In the case of `COc1ccc2cc(C(=O)CN3CCN(c4c(F)cc5c(=O)c(C(=O)O)cn(C6CC6)c5c4OC)CC3)c(=O)oc2c1`, the MIC was 6.25 µg/mL (≈ 10.8 µM) in [4] and 0.25 µg/mL (≈ 0.433 µM) in [1]. In addition, the “Ratio IC50” value in assay [6], in assay [7], in assay [8], in assay [9] and in assay [10] was 2 throughout.

In the case of `O=C(N/N=C/c1ccc([N+](=O)[O-])cc1)c1cc2ccccc2oc1=O`, the MIC in assay [1] was found to be 100 µg/mL (≈ 296 µM).

Take `Cc1cc2oc(=O)cc(Nc3ccc4ccccc4c3)c2cc1Cl`: the inhibition at 6.25 µg/mL in assay [11] worked out at 100%.

With `O=c1cc(Nc2ccc3ccccc3c2)c2ccccc2o1`, in assay [11], the inhibition at 6.25 µg/mL came to 81%.

As to `O=c1oc2ccccc2c(O)c1C1=Nc2ccccc2SC(c2ccccc2O)C1` (centres undefined), the inhibition at 6.25 µg/mL in assay [11] is 94%.

As for `O=c1oc2ccccc2c(O)c1C1=Nc2ccccc2SC(c2ccc([N+](=O)[O-])cc2)C1` (centres undefined), in [11], the inhibition at 6.25 µg/mL is 93%.

Regarding `O=c1oc2ccccc2c(O)c1C1=Nc2ccccc2SC(c2c[nH]c3ccccc23)C1` (centres undefined), in [11], the inhibition at 6.25 µg/mL amounted to 80%.

For the molecule `N#Cc1c(/C=C/c2cccc(-c3ccccc3)c2)c2cc(Cl)ccc2oc1=O`, the “inhibition (INH)” value in assay [1] stood at 72%.

In the case of `COc1ccc2ccc(=O)oc2c1C(CO)=C(C)C`, in assay [1], the MIC is 50 µg/mL (≈ 192 µM).

`COc1cc2oc(=O)ccc2cc1[C@H]1OC(=O)[C@]2(C)O[C@H]12`: the MIC in assay [1] is 50 µg/mL (≈ 173 µM).

In the case of `C=CC(C)(C)c1c2c(c(O)c3ccc(=O)oc13)C(=O)CC(C)(C)O2`, the MIC in [1] amounted to 200 µg/mL (≈ 609 µM).

Take `Cc1ccc(C)c2c(CC(=O)N/N=C/c3ccccc3)cc(=O)oc12`: the “inhibition (INH)” value in [1] was 70%.

Regarding `O=C(Cc1cc(=O)oc2cc(O)ccc12)N/N=C/c1cccc([N+](=O)[O-])c1`, in assay [1], the “inhibition (INH)” value is 93%.

Take `Cc1ccc(C)c2c(CC(=O)N/N=C/c3ccccc3[N+](=O)[O-])cc(=O)oc12`: the “inhibition (INH)” value in assay [1] is recorded as 65%.

For `C/C(=C\CC/C(C)=C/Cc1c(O)c2ccccc2oc1=O)CC/C=C(\C)COC(=O)c1ccccc1`, the MIC (in [4]; with Mycolicibacterium phlei) was 2 µg/mL (≈ 4.11 µM) in each case.

Take `C/C(=C\CC/C(C)=C/CC/C(C)=C/Cc1c(O)c2ccccc2oc1=O)CO`: the MIC (in assay [4]; against Mycolicibacterium phlei) was 16 µg/mL (≈ 41.8 µM) each time.

Regarding `CC(=O)OC/C(C)=C/CC/C(C)=C/CC/C(C)=C/Cc1c(O)c2ccccc2oc1=O`, the MIC (in assay [4]; against Mycolicibacterium phlei) was 8 µg/mL (≈ 18.8 µM) each time.

Regarding `C=CC(C)(C)c1c(O)c2c(c3ccc(=O)oc13)OC(C)(C)C=C2`, the MIC in [1] was 100 µg/mL (≈ 320 µM).

Take `O=c1ccc2c(O)c3ccoc3cc2o1` [BERGAPTOL]: the MIC in [1] came to 100 µg/mL (≈ 495 µM).

For `C=CC(C)(C)c1c2c(c(OC)c3ccc(=O)oc13)C=CC(C)(C)O2` [DENTATIN], the minimum inhibitory concentration (MIC) in assay [1] came out at 50 µg/mL (≈ 153 µM).

Turning to `COc1cc2ccc(=O)oc2cc1O` [SCOPOLETIN], the MIC in assay [1] came out at 42.1 µg/mL (≈ 219 µM).
